Experimental data: US12077503B2, “Substituted cyclic amides and their use as herbicides” (FMC CORPORATION, priority 2015, dated 2024)

Experiments:
Format in all cases: in vivo
[1] = tested on: barnyardgrass (Echinochloa crus-galli); assay: Test A preemergence; details: Echinochloa crus-galli, pre-emergence, 240 h, 0 to 100 scale where 0 is no effect and 100 is complete control, read-out: Barnyardgrass plant response rating
In short: (§1)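 Preemergence soil spray on seeded pots or post-emergence spray on 1–2 leaf plants, in loam–sand blend. Greenhouse ~10 d. Visual rating 0–100 against untreated plants.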

[2] = tested on: ragweed (common ragweed, Ambrosia elatior); assay: Test A preemergence; details: Ambrosia artemisiifolia, pre-emergence, 240 h, 0 to 100 scale where 0 is no effect and 100 is complete control, read-out: Ragweed plant response rating
In short: as §1

[3] = tested on: ryegrass, Italian (Italian ryegrass, Lolium multiflorum); assay: Test A preemergence; details: Lolium multiflorum, pre-emergence, 240 h, 0 to 100 scale where 0 is no effect and 100 is complete control, read-out: Ryegrass, Italian plant response rating
In short: as §1

[4] = tested on: giant foxtail (Setaria faberii); assay: Test A preemergence; details: Setaria faberi, pre-emergence, 240 h, 0 to 100 scale where 0 is no effect and 100 is complete control, read-out: Foxtail, Giant plant response rating
In short: as §1

Kochia (Kochia scoparia) [5] = assay: Test A preemergence; details: Bassia scoparia, pre-emergence, 240 h, 0 to 100 scale where 0 is no effect and 100 is complete control, read-out: Kochia plant response rating
In short: as §1

[6] = tested on: pigweed (Amaranthus retroflexus); assay: Test A preemergence; details: Amaranthus retroflexus, pre-emergence, 240 h, 0 to 100 scale where 0 is no effect and 100 is complete control, read-out: Pigweed plant response rating
corn (Zea mays) = assay: Test A postemergence; details: Zea mays, post-emergence, 240 h
In short: as §1

[7] = tested on: barnyardgrass (Echinochloa crus-galli); assay: Test A postemergence; details: Echinochloa crus-galli, post-emergence, 240 h
In short: as §1

[8] = tested on: ragweed (common ragweed, Ambrosia elatior); assay: Test A postemergence; details: Ambrosia artemisiifolia, post-emergence, 240 h, 125 g ai/ha, postemergence, visual injury vs untreated controls after approx. 10 d; 0 = no effect, 100 = complete control; read-out: Ragweed plant response rating (0 to 100 scale)
In short: as §1

[9] = tested on: blackgrass (Alopecurus myosuroides); assay: Test A postemergence; details: Alopecurus myosuroides, post-emergence, 240 h
In short: as §1

[10] = tested on: Galium (catchweed bedstraw, Galium aparine); assay: Test A postemergence; details: Galium, post-emergence, 240 h
In short: as §1

[11] = tested on: ryegrass, Italian (Italian ryegrass, Lolium multiflorum); assay: Test A postemergence; details: Lolium multiflorum, post-emergence, 240 h, 125 g ai/ha, postemergence, visual injury vs untreated controls after approx. 10 d; 0 = no effect, 100 = complete control; read-out: Ryegrass, Italian plant response rating (0 to 100 scale)
In short: as §1

[12] = tested on: wheat (Triticum aestivum); assay: Test A postemergence; details: Triticum aestivum, post-emergence, 240 h, 125 g ai/ha, postemergence, visual injury vs untreated controls after approx. 10 d; 0 = no effect, 100 = complete control; read-out: Wheat plant response rating (0 to 100 scale)
In short: as §1

[13] = tested on: giant foxtail (Setaria faberii); assay: Test A postemergence; details: Setaria faberi, post-emergence, 240 h
In short: as §1

Kochia (Kochia scoparia) [14] = assay: Test A postemergence; details: Bassia scoparia, post-emergence, 240 h
In short: as §1

[15] = tested on: pigweed (Amaranthus retroflexus); assay: Test A postemergence; details: Amaranthus retroflexus, post-emergence, 240 h, 125 g ai/ha, postemergence, visual injury vs untreated controls after approx. 10 d; 0 = no effect, 100 = complete control; read-out: Pigweed plant response rating (0 to 100 scale)
In short: as §1

[16] = tested on: barnyardgrass (Echinochloa crus-galli); assay: Test B flooded paddy test; details: Echinochloa crus-galli, 250 g ai/ha, Flood; 0 to 100 scale where 0 is no effect and 100 is complete control; read-out: Barnyardgrass plant response rating
In short: (§2)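 Response scored visually against untreated controls, 0 = no effect and 100 = complete control, 13–15 d after treatment in the greenhouse. Compounds added to paddy water held 3 cm above soil surface. Treatment given at 2-leaf stage.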

rice (Oryra sativa) = assay: Test B flooded paddy test; details: Oryza sativa, 250 g ai/ha, Flood; 0 to 100 scale where 0 is no effect and 100 is complete control; read-out: Rice plant response rating
In short: as §2

[17] = tested on: sedge, umbrella (small-flower umbrella sedge, Cyperus difformis); assay: Test B flooded paddy test; details: Cyperus difformis, 250 g ai/ha, Flood; 0 to 100 scale where 0 is no effect and 100 is complete control; read-out: Sedge, Umbrella plant response rating
In short: as §2

[18] = tested on: ducksalad (Heteranthera limosa); assay: Test B flooded paddy test; details: Heteranthera limosa, 250 g ai/ha, Flood; 0 to 100 scale where 0 is no effect and 100 is complete control; read-out: Ducksalad plant response rating
In short: as §2

[19] = 125 g ai/ha, preemergence, approx. 10 d

Question: How did the pest or weed control at 31 g/ha ([1]; 31 g ai/ha, Preemergence) turn out when `CN1CC[C@H](c2ccc3c(c2)OC(F)(F)O3)[C@@H](C(=O)Nc2cccc(Cl)c2F)C1=O` [Compound 1174] was run?
Answer: The pest or weed control at 31 g/ha was 80%.

Question: What about the pest or weed control at 125 g/ha [1, 19] of the same compound?
Answer: Its pest or weed control at 125 g/ha is 100%.

Question: And the pest or weed control at 31 g/ha ([2]; 31 g ai/ha, Preemergence)?
Answer: Its pest or weed control at 31 g/ha is 0%.

Question: And the pest or weed control at 125 g/ha [2, 19]?
Answer: Its pest or weed control at 125 g/ha is 0%.

Question: And the pest or weed control at 31 g/ha ([3]; 31 g ai/ha, Preemergence)?
Answer: Its pest or weed control at 31 g/ha is 0%.

Question: What about the pest or weed control at 125 g/ha [3, 19] of the same compound?
Answer: Its pest or weed control at 125 g/ha is 40%.

Question: And the pest or weed control at 31 g/ha ([4]; 31 g ai/ha, Preemergence)?
Answer: Its pest or weed control at 31 g/ha is 80%.

Question: And the pest or weed control at 125 g/ha [4, 19]?
Answer: Its pest or weed control at 125 g/ha is 90%.

Question: And the pest or weed control at 31 g/ha (Kochia (Kochia scoparia) [5]; 31 g ai/ha, Preemergence)?
Answer: Its pest or weed control at 31 g/ha is 0%.

Question: And the pest or weed control at 125 g/ha (Kochia (Kochia scoparia) [5]; [19])?
Answer: Its pest or weed control at 125 g/ha is 0%.

Question: What about the pest or weed control at 31 g/ha ([6]; 31 g ai/ha, Preemergence) of the same compound?
Answer: Its pest or weed control at 31 g/ha is 0%.

Question: What about the pest or weed control at 125 g/ha [6, 19] of the same compound?
Answer: The pest or weed control at 125 g/ha was 0%.

Question: And the plant injury at 125 g/ha (corn (Zea mays); 125 g ai/ha, postemergence, visual injury vs untreated controls after approx. 10 d, 0 = no effect, 100 = complete control, read-out: Corn plant response rating (0 to 100 scale))?
Answer: The plant injury at 125 g/ha was 50%.

Question: And the Corn plant response rating (crop injury, 0 = no effect, 100 = complete kill) at 31 g/ha (corn (Zea mays); Postemergence, 31 g ai/ha, visual injury after approx. 10 d, 0 to 100 scale, 0 no effect, 100 complete control)?
Answer: The Corn plant response rating (crop injury, 0 = no effect, 100 = complete kill) at 31 g/ha was 0%.

Question: And the pest or weed control at 125 g/ha ([7]; 125 g ai/ha, postemergence, visual injury vs untreated controls after approx. 10 d, 0 = no effect, 100 = complete control, read-out: Barnyardgrass plant response rating (0 to 100 scale))?
Answer: Its pest or weed control at 125 g/ha is 70%.

Question: And the pest or weed control at 31 g/ha ([7]; Postemergence, 31 g ai/ha, visual injury after approx. 10 d, 0 to 100 scale, 0 no effect, 100 complete control, read-out: Plant response rating, Barnyardgrass)?
Answer: Its pest or weed control at 31 g/ha is 70%.

Question: What about the pest or weed control at 125 g/ha [8] of the same compound?
Answer: The pest or weed control at 125 g/ha was 0%.

Question: And the pest or weed control at 125 g/ha ([9]; 125 g ai/ha, postemergence, visual injury vs untreated controls after approx. 10 d, 0 = no effect, 100 = complete control, read-out: Blackgrass plant response rating (0 to 100 scale))?
Answer: Its pest or weed control at 125 g/ha is 0%.

Question: What about the pest or weed control at 31 g/ha ([9]; Postemergence, 31 g ai/ha, visual injury after approx. 10 d, 0 to 100 scale, 0 no effect, 100 complete control, read-out: Plant response rating, Blackgrass) of the same compound?
Answer: Its pest or weed control at 31 g/ha is 0%.

Question: What about the pest or weed control at 125 g/ha ([10]; 125 g ai/ha, postemergence, visual injury vs untreated controls after approx. 10 d, 0 = no effect, 100 = complete control, read-out: Galium plant response rating (0 to 100 scale)) of the same compound?
Answer: The pest or weed control at 125 g/ha was 0%.

Question: And the pest or weed control at 31 g/ha ([10]; Postemergence, 31 g ai/ha, visual injury after approx. 10 d, 0 to 100 scale, 0 no effect, 100 complete control, read-out: Plant response rating, Galium)?
Answer: The pest or weed control at 31 g/ha was 0%.

Question: What about the pest or weed control at 125 g/ha [11] of the same compound?
Answer: Its pest or weed control at 125 g/ha is 0%.

Question: What about the plant injury at 125 g/ha [12] of the same compound?
Answer: The plant injury at 125 g/ha was 30%.

Question: And the pest or weed control at 125 g/ha ([13]; 125 g ai/ha, postemergence, visual injury vs untreated controls after approx. 10 d, 0 = no effect, 100 = complete control, read-out: Foxtail, Giant plant response rating (0 to 100 scale))?
Answer: Its pest or weed control at 125 g/ha is 80%.

Question: And the pest or weed control at 31 g/ha ([13]; Postemergence, 31 g ai/ha, visual injury after approx. 10 d, 0 to 100 scale, 0 no effect, 100 complete control, read-out: Plant response rating, Foxtail, Giant)?
Answer: Its pest or weed control at 31 g/ha is 40%.

Question: What about the pest or weed control at 125 g/ha (Kochia (Kochia scoparia) [14]; 125 g ai/ha, postemergence, visual injury vs untreated controls after approx. 10 d, 0 = no effect, 100 = complete control, read-out: Kochia plant response rating (0 to 100 scale)) of the same compound?
Answer: Its pest or weed control at 125 g/ha is 0%.

Question: And the pest or weed control at 31 g/ha (Kochia (Kochia scoparia) [14]; Postemergence, 31 g ai/ha, visual injury after approx. 10 d, 0 to 100 scale, 0 no effect, 100 complete control, read-out: Plant response rating, Kochia)?
Answer: Its pest or weed control at 31 g/ha is 0%.

Question: What about the pest or weed control at 125 g/ha [15] of the same compound?
Answer: Its pest or weed control at 125 g/ha is 0%.

Question: What about the pest or weed control at 250 g/ha [16] of the same compound?
Answer: Its pest or weed control at 250 g/ha is 70%.

Question: And the pest or weed control at 250 g/ha (rice (Oryra sativa))?
Answer: The pest or weed control at 250 g/ha was 20%.

Question: And the pest or weed control at 250 g/ha [17]?
Answer: The pest or weed control at 250 g/ha was 0%.

Question: What about the pest or weed control at 250 g/ha [18] of the same compound?
Answer: Its pest or weed control at 250 g/ha is 90%.
